Experiments:
[1] = system: SEPHS1 knockout mouse-derived chondrocytes; assay: DNA damage (γ-H2AX foci) in SEPHS1 knockout mouse-derived chondrocytes; assay type: cell-based; conditions: after NAC treatment
Description: (§1) For primary culture of mouse articular chondrocytes, cells derived from femoral condyle and tibial plateaus of 5-day-old ICR mice were isolated. Chondrocytes were cultured in DMEM medium containing 10% FBS (Gibco), 100 units/mL of penicillin, and 100 μg/mL of streptomycin. After 2 days, cells were treated according to the purpose of each experiment. The cultured cells were maintained at 37° C. under 5% CO2 and 3% O2 conditions. In addition, DNA damage and senescence-associated β-galactosidase (SA-β-gal) activity were measured to determine the relationship between SEPHS1 deficiency and cellular senescence. […] In order to determine whether the DNA damage and the increase in SA-β-gal activity caused by SEPHS1 inhibition were caused by the accumulation of ROS, SEPHS1 knockout mouse-derived chondrocytes were additionally treated with N-acetylcysteine (NAC), followed by repeatedly performing the same experiment. As a result, it was confirmed that DNA damage caused by SEPHS1 inhibition and the increase in SA-β-gal activity were reduced after NAC treatment (FIGS. 3P to 3S).

[2] = system: SEPHS1 knockout mouse-derived chondrocytes; assay: senescence-associated β-galactosidase (SA-β-gal) activity in SEPHS1 knockout mouse-derived chondrocytes; assay type: cell-based; conditions: after NAC treatment
Description: as §1

[3] = system: SEPHS1-iCKO mice; assay: post-traumatic osteoarthritis (DMM surgery) in SEPHS1-iCKO mice with NAC or selenate in drinking water; assay type: in vivo, mouse; conditions: for osteoarthritis phenotype of SEPHS1-iCKO mice: drinking water with NAC 1 mg/mL or sodium selenate 1 ppm, from 5 days prior to DMM
Description: Selenate supplementation or NAC treatment was performed by supplying mice with drinking water in which sodium selenate (1 ppm) or NAC (1 mg/mL) was dissolved. Further, to Sephs1-iCKO mice, NAC, selenate or vehicle was supplemented 5 days prior to DMM surgery.
Posttraumatic osteoarthritis (OA) was induced by executing DMM surgery in 12-week-old (WT C57BL/6) or 13-week-old (SEPHS1^fl/fl or SEPHS1^fl/fl; Col2a1-CreER^T2) mice, and mice (sham) without DMM after incision were used as a control. These mice were sacrificed 6 or 8 weeks after DMM or sham surgery.
As an aging-associated OA model, 24-month-old C57BL/6 male mice were used for histological analysis and 3-month-old mice were used as a control. The extent of cartilage degeneration in the knee joint was assessed by safranin-O staining and scored using the OARSI grading system.

Row | increase in SA-β-gal activity [2] | SMILES | DNA damage caused by SEPHS1 inhibition [1] | weight imbalance between the operated legs and the other legs without operation ([3]; SEPHS1-iCKO mice, NAC 1 mg/mL in drinking water) | osteoarthritis phenotype of SEPHS1-iCKO mice [3]
1 | reduced | CC(=O)N[C@@H](CS)C(=O)O [NAC, N-acetylcysteine] | reduced | alleviated | alleviated
2 | – | O=[Se](=O)([O-])[O-].[Na+].[Na+] [selenate, sodium selenate] | – | – | did not restore
